Measurements as given in article PMC6602202, “Enteroendocrine peptides regulate feeding behavior via controlling intestinal contraction of the silkworm Bombyx mori” (PLoS ONE, 2019).

Assays:
BNGR-A5 = assay: aequorin-based bioluminescent calcium assay, CHO cells expressing BNGR-A5; type: cell-based, Bombyx mori; conditions: aequorin luminescence 20 s, triplicates, three experiments
Protocol: Activity of the BNGR-A5 and -16 receptors were analyzed using Chinese hamster ovary (CHO) cells transiently transfected with plasmids for expression of each BNGR, calcium-sensitive reporter aequorin and chimeric G protein that couple with receptor activation to an intracellular Ca^2+-increase independent of the endogenous receptor signaling cascade. The entire open reading frames of BNGR-A5 and -16 were cloned into pcDNA3.1(+) vector (Invitrogen) with a Kozak translation initiation sequence incorporated at 5´end. Plasmids for codon optimized aequorin and chimeric G proteins were used as described previously. […]
The transfected cells were detached using PBS supplemented with 0.2% EDTA and rinsed of the culture plates with the assay medium—phenol red free DMEM/F12 with L-glutamine and 15 mM HEPES (PAN Biotech, Wimborne, Dorset, UK), 0.1% BSA (Sigma-Aldrich Co. LLC.) and 1% penicillin/streptomycin (Life Technologies). […] Emitted luminescence signal corresponding to the ligand-induced intracellular Ca^2+ release was recorded for 20 s using the GloMax-Multi+ Detection System (Promega). […]

esophagus = assay: Esophageal contraction in intact transparent larvae; type: in vivo, Bombyx mori
Protocol: Transparent larvae were prepared by feeding an artificial diet containing 0.05% melamine (Wako Pure Chemical Industries) starting from 0-day-old fifth-instar larvae. […] The visible effect took place in 2-day-old fifth-instar larvae compared to normally fed larvae. The feeding behavioral assay of transparent larva was performed in the same way as that of normal larvae. Each transparent larva was surrounded with a soft sponge and held with both sides by two slide glasses. Transmitted light enabled to illuminate the shape and movement of the shadowed esophagus portion. The contraction of foregut, particularly ‘forward contraction wave’ and ‘peristaltic squeeze’ at the esophagus were observed using a digital microscope to measure the number of contractions per minute. The ‘peristaltic squeezes’ at 8 h and 16 h in non-fed larvae were unmeasurable because of the limit of detection in our observation using digital microscope. 100 μL of distilled water (vehicle control) and 100 μL peptide-containing solution (10^−7–10^−4 M of peptides dissolved in distilled water) were injected dorsolaterally into the hemolymph. After injection, the numbers of contractions per minute of the esophagus were counted from the data of 3 min observation. Statistical analysis was performed using a one-way ANOVA, then a post hoc Dunnett’s test. Reproducibility was confirmed at least twice by assay using different populations of larvae.

BNGR-A16 = conditions: cited from earlier work
B. mori larvae = assay: Feeding behavioral assay (latency to first bite), 2-day-old fifth-instar larvae; type: in vivo, Bombyx mori; conditions: 100 μL injected dorsolaterally into the hemolymph, after 16 h diet deprivation, n = 3
Protocol: A part of the eluents of the fractions from RP-HPLC as well as synthetic peptide solutions was evaporated to dryness and dissolved in 100 μL distilled water just prior to the bioassay. The feeding cycles of 2-day-old fifth-instar B. mori larvae were synchronized by diet deprivation for 16 h. After diet deprivation, the larvae were anesthetized by submerging in icy water for 15 min. Then, 100 μL sample was injected dorsolaterally into the hemolymph. After injection, the larvae were placed in front of artificial diet blocks, and then the latency to their first bites as the initiation of feeding (first bite) after sample-injection was measured as reported previously. Statistical analysis was performed using a one-way analysis of variance (one-way ANOVA), then a post hoc Dunnett’s test. Reproducibility was confirmed at least twice by assays using different populations of larvae.

[1] = 10^−7–10^−4 M, 100 μL injected dorsolaterally, fed ad libitum transparent larvae, counted over 3 min, P < 0.05, n = 5

## allatotropin
BNGR-A5
  affinity, BNGR-A5: much higher affinity to AT than BNGR-A16
esophagus; 10^−5 M solution injected dorsolaterally into the hemolymph
  forward contraction wave and peristaltic squeeze (movie): the forward contraction wave and peristaltic squeeze were inhibited
esophagus; [1]
  number of forward contraction waves: decreased numbers of forward contraction waves and peristaltic squeezes in a dose-response manner
  number of peristaltic squeezes: decreased numbers of forward contraction waves and peristaltic squeezes in a dose-response manner
BNGR-A16
  AT receptor assignment: the AT receptor is assigned to be BNGR-A16
B. mori larvae; significant by one-way ANOVA (P < 0.01)
  effect on latency to the first bite, synthetic peptides: prolonged the latency to the first bite in a dose-dependent manner
B. mori larvae; synthetic peptides
  ED50, prolongation of the latency to the first bite: 1000 nM
